Results: patent publication US10413520B2, “Oral pharmacological composition including 5-{4-(amino sulfonyl)phenyl}-2,2-dimethyl-4-(3-fluorophenyl)-3(2H)-furanone having crystalline structure with excellent stability” (CRYSTALGENOMICS, INC., priority 2014, dated 2019)

Tests used:
Type in all cases: physicochemical
[1] = Particle size analysis by laser diffraction; conditions: dry module, 2 bar
Method: The particle sizes of the crystalline form of Comparative Examples 1 and 2 and Example 39 were analyzed using a laser diffraction-based particle size analyzer (Mastersizer 2000®, Malvern). After each sample was fed into a dry module (Scirocco 2000®, Malvern) at a pressure of 2 bar, the 50% volume particle diameter (d(0.5)) and 90% volume particle diameter (d(0.9)) of the particles were measured.

[2] = Dissolution rates of crystalline form with different particle sizes; conditions: 2 mg per hard capsule, 900 ml pH 1.2 and pH 6.8 solutions, 100 rpm, 37±0.5° C., 3 hr
Method: In this example, the dissolution rates of the crystalline form with different particle sizes were examined. The particles of Comparative Examples 1 and 2 and Example 39 were filled in different hard capsules (2 mg per capsule) and were then eluted in 900 ml of a pH 1.2 solution and 900 ml of a pH 6.8 solution at a revolution number of 100 rpm and a temperature of 37±0.5° C. for 3 hr. The eluted particles were analyzed under the same HPLC conditions as described in Test Example 1.

[3] = Temperature stability of crystalline form A in capsules; conditions: PTP, 60 ± 5% RH
Method: The retention time of the major peak, the amounts of related substances, and the compound content were analyzed by HPLC under the following conditions.
<HPLC Conditions for Analysis of Related Substances>
Column: Hypurity C18, 250×4.6 mm, […] or its equivalent column
Detector: UV absorption spectrometer (measured at 241 nm)
Column temperature: 30° C.
Mobile phase: A—acetonitrile, B—0.1% v/v trifluoroacetic acid (TFA) in water
<HPLC Conditions for Analysis of the Compound Content>
Detector: UV absorption spectrometer (measured at 325 nm)
Mobile phase: A—acetonitrile, B—water, A:B=60:40, v/v %
Diluent: water:acetonitrile=50:50, v/v %

[4] = Humidity stability of crystalline form A in capsules; conditions: PTP, 25 ± 2° C., 90 ± 5% RH
Method: The crystalline form A was filled in a hard capsule (2 mg per capsule) and stored under the severe humidity conditions shown in Table 10. Thereafter, the appearance of the crystalline form A, the retention time of the major peak, the amounts (%) of related substances, and the compound content were analyzed.

[5] = Light stability of crystalline form A in capsules; conditions: PTP, light stress (white and UV florescent lamp)
Method: The crystalline form A was filled in a hard capsule (2 mg per capsule) and stored under the light stress conditions shown in Table 11. Thereafter, the appearance of the crystalline form A, the retention time of the major peak, the amounts (%) of related substances, and the compound content were analyzed.

[6] = Room temperature storage of anhydrous form; conditions: stored at room temperature for a long period
Method: Then, about 18 g of the compound was dissolved in 200 mL of acetone. The completely dissolved solution was vacuum dried at 40° C. using a rotary evaporator (Buchi Rota Vapour R200). The compound thus obtained was a sponge-like solid. When the compound was stored at room temperature for a long period, the structure of the crystalline form A was gradually formed, and related substances were created due to hygroscopic property.

Q: For CC1(C)OC(c2ccc(S(N)(=O)=O)cc2)=C(c2cccc(F)c2)C1=O [Example 39], which “Particle size d(0.1)” value [1] is on record?
A: 1.75 μm

Q: What about the “Particle size d(0.5), 50% volume particle diameter” value [1] of the same molecule?
A: 5.98 μm

Q: What about the “Particle size d(0.9), 90% volume particle diameter” value [1] of the same molecule?
A: 15.23 μm

Q: What about the Dissolution rate [2] of the same molecule?
A: higher dissolution rates than the particles of Comparative Examples 1 and 2

Q: What about the “Amounts of related substances (each)” value ([3]; 60 ± 2° C., 24 hr) of the same molecule?
A: 0.0%,

Q: And the “Amounts of related substances (total)” value ([3]; 60 ± 2° C., 24 hr)?
A: 0.0%

Q: And the Appearance ([3]; 60 ± 2° C., 24 hr)?
A: Unchanged

Q: What about the Content ([3]; 60 ± 2° C., 24 hr) of the same molecule?
A: 103.0%

Q: And the “Peak retention time confirmation” value ([3]; 60 ± 2° C., 24 hr)?
A: The same

Q: What about the “Amounts of related substances (each)” value ([3]; 80 ± 2° C., 24 hr) of the same molecule?
A: 0.0%,

Q: And the “Amounts of related substances (total)” value ([3]; 80 ± 2° C., 24 hr)?
A: 0.0%

Q: And the Appearance ([3]; 80 ± 2° C., 24 hr)?
A: Unchanged

Q: What about the Content ([3]; 80 ± 2° C., 24 hr) of the same molecule?
A: 101.5%

Q: And the “Peak retention time confirmation” value ([3]; 80 ± 2° C., 24 hr)?
A: The same

Q: And the “Amounts of related substances (each)” value ([3]; 90 ± 2° C., 24 hr)?
A: 0.0%,

Q: And the “Amounts of related substances (total)” value ([3]; 90 ± 2° C., 24 hr)?
A: 0.0%

Q: And the Appearance ([3]; 90 ± 2° C., 24 hr)?
A: Unchanged

Q: And the Content ([3]; 90 ± 2° C., 24 hr)?
A: 101.8%

Q: What about the “Peak retention time confirmation” value ([3]; 90 ± 2° C., 24 hr) of the same molecule?
A: The same

Q: What about the “Amounts of related substances (each)” value ([3]; 90 ± 2° C., 72 hr) of the same molecule?
A: 0.1%,

Q: And the “Amounts of related substances (total)” value ([3]; 90 ± 2° C., 72 hr)?
A: 0.1%

Q: What about the Appearance ([3]; 90 ± 2° C., 72 hr) of the same molecule?
A: Unchanged

Q: What about the Content ([3]; 90 ± 2° C., 72 hr) of the same molecule?
A: 101.1%

Q: What about the “Peak retention time confirmation” value ([3]; 90 ± 2° C., 72 hr) of the same molecule?
A: The same

Q: What about the “Amounts of related substances (each)” value ([4]; 1 week) of the same molecule?
A: 0.1%

Q: And the “Amounts of related substances (total)” value ([4]; 1 week)?
A: 0.1%,

Q: What about the Appearance ([4]; 1 week) of the same molecule?
A: Unchanged

Q: What about the Content ([4]; 1 week) of the same molecule?
A: 103.1%

Q: What about the “Peak retention time confirmation” value ([4]; 1 week) of the same molecule?
A: The same

Q: What about the “Amounts of related substances (each)” value ([4]; 2 weeks) of the same molecule?
A: 0.1%, 0.1%

Q: And the “Amounts of related substances (total)” value ([4]; 2 weeks)?
A: 0.1%, 0.1%

Q: And the Appearance ([4]; 2 weeks)?
A: Unchanged

Q: What about the Content ([4]; 2 weeks) of the same molecule?
A: 103.1%

Q: And the “Peak retention time confirmation” value ([4]; 2 weeks)?
A: The same

Q: And the “Amounts of related substances (each)” value ([4]; 4 weeks)?
A: 0.1%,

Q: And the “Amounts of related substances (total)” value ([4]; 4 weeks)?
A: 0.1%

Q: What about the Appearance ([4]; 4 weeks) of the same molecule?
A: Unchanged

Q: And the Content ([4]; 4 weeks)?
A: 101.2%

Q: What about the “Peak retention time confirmation” value ([4]; 4 weeks) of the same molecule?
A: The same

Q: What about the “Amounts of related substances (each)” value ([5]; 1 week) of the same molecule?
A: 1.7%

Q: What about the “Amounts of related substances (total)” value ([5]; 1 week) of the same molecule?
A: 3.0%

Q: And the Appearance ([5]; 1 week)?
A: Unchanged

Q: What about the Content ([5]; 1 week) of the same molecule?
A: 103.4%

Q: What about the “Peak retention time confirmation” value ([5]; 1 week) of the same molecule?
A: The same

Q: What about the “Amounts of related substances (each)” value ([5]; 2 weeks) of the same molecule?
A: 2.1%

Q: What about the “Amounts of related substances (total)” value ([5]; 2 weeks) of the same molecule?
A: 3.7%

Q: What about the Appearance ([5]; 2 weeks) of the same molecule?
A: Unchanged

Q: What about the Content ([5]; 2 weeks) of the same molecule?
A: 103.1%

Q: What about the “Peak retention time confirmation” value ([5]; 2 weeks) of the same molecule?
A: The same

Q: What about the “Amounts of related substances (each)” value ([5]; 4 weeks) of the same molecule?
A: 2.3%

Q: And the “Amounts of related substances (total)” value ([5]; 4 weeks)?
A: 4.1%

Q: And the Appearance ([5]; 4 weeks)?
A: Unchanged

Q: And the Content ([5]; 4 weeks)?
A: 99.1%

Q: And the “Peak retention time confirmation” value ([5]; 4 weeks)?
A: The same

Q: Which Physicochemical stability [6] does the source give for CC1(C)OC(c2ccc(S(N)(=O)=O)cc2)=C(c2cccc(F)c2)C1=O [Preparation Example 2] here?
A: physicochemically unstable
